Where only a bound is given, the exact number is not on record here.

The values below come from ChEMBL document CHEMBL1201861, “Genomics of Drug Sensitity in Cancer screening data, Wellcome Trust Sanger Institute”.

The test system of the first test is C3A. Nature of the test: cells. Type of test: functional, cell-based. Particulars: Homo sapiens.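 Also: growth inhibition of C3A human cells, quantified with a cell viability readout.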
Description: SANGER: Inhibition of human C3A cell growth in a cell viability assay.
Consider `CC1(C)CCC(c2ccc(Cl)cc2)=C(CN2CCN(c3ccc(C(=O)NS(=O)(=O)c4ccc(N[C@H](CCN5CCOCC5)CSc5ccccc5)c(S(=O)(=O)C(F)(F)F)c4)cc3)CC2)C1` [NAVITOCLAX], for which the IC50 – broadly, the point on the concentration scale where inhibition reaches its midpoint – is over 2000 nM.

Another test has as its system HTC-C3. Nature of the test: cells. Type of test: functional, cell-based. Particulars: Homo sapiens.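 Also: inhibition of cell growth, read out with a cell viability assay.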
Description: SANGER: Inhibition of human HTC-C3 cell growth in a cell viability assay.
Take `CC1(C)CCC(c2ccc(Cl)cc2)=C(CN2CCN(c3ccc(C(=O)NS(=O)(=O)c4ccc(N[C@H](CCN5CCOCC5)CSc5ccccc5)c(S(=O)(=O)C(F)(F)F)c4)cc3)CC2)C1` [NAVITOCLAX]: the IC50 was over 2000 nM.

The next test has as its system MC-IXC. Nature of the test: cells. Type of test: functional, cell-based. Conditions: Homo sapiens.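 Also: growth inhibition of MC-IXC cells, read out with a cell viability assay.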
Description: SANGER: Inhibition of human MC-IXC cell growth in a cell viability assay.
Compound `CC1(C)CCC(c2ccc(Cl)cc2)=C(CN2CCN(c3ccc(C(=O)NS(=O)(=O)c4ccc(N[C@H](CCN5CCOCC5)CSc5ccccc5)c(S(=O)(=O)C(F)(F)F)c4)cc3)CC2)C1` [NAVITOCLAX] yielded an IC50 of over 2000 nM.

Another test has as its system KYSE-270. Nature of the test: cells. It counts as functional, cell-based. Particulars: Homo sapiens.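 Also: cell growth inhibition measured with a viability assay in the human KYSE-270 line.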
Description: SANGER: Inhibition of human KYSE-270 cell growth in a cell viability assay.
Regarding `CC1(C)CCC(c2ccc(Cl)cc2)=C(CN2CCN(c3ccc(C(=O)NS(=O)(=O)c4ccc(N[C@H](CCN5CCOCC5)CSc5ccccc5)c(S(=O)(=O)C(F)(F)F)c4)cc3)CC2)C1` [NAVITOCLAX], the IC50 is over 2000 nM.

A further test concerns LCLC-103H cell line. Nature of the test: cells. It counts as functional, cell-based. Particulars: Homo sapiens.
Description: SANGER: Inhibition of human LCLC-103H cell growth in a cell viability assay.
In the case of `CC1(C)CCC(c2ccc(Cl)cc2)=C(CN2CCN(c3ccc(C(=O)NS(=O)(=O)c4ccc(N[C@H](CCN5CCOCC5)CSc5ccccc5)c(S(=O)(=O)C(F)(F)F)c4)cc3)CC2)C1` [NAVITOCLAX], the IC50 is over 2000 nM.

The next test relates to MEL-HO. Nature of the test: cells. It counts as functional, cell-based. Particulars: Homo sapiens.
Description: SANGER: Inhibition of human MEL-HO cell growth in a cell viability assay.
Compound `CC1(C)CCC(c2ccc(Cl)cc2)=C(CN2CCN(c3ccc(C(=O)NS(=O)(=O)c4ccc(N[C@H](CCN5CCOCC5)CSc5ccccc5)c(S(=O)(=O)C(F)(F)F)c4)cc3)CC2)C1` [NAVITOCLAX] came in with an IC50 of over 2000 nM.

The subject of the next test is RD. Nature of the test: cells. Type of test: functional, cell-based. Particulars: Homo sapiens.
Description: SANGER: Inhibition of human RD cell growth in a cell viability assay.
The compound `CC1(C)CCC(c2ccc(Cl)cc2)=C(CN2CCN(c3ccc(C(=O)NS(=O)(=O)c4ccc(N[C@H](CCN5CCOCC5)CSc5ccccc5)c(S(=O)(=O)C(F)(F)F)c4)cc3)CC2)C1` [NAVITOCLAX] yielded an IC50 of 759 nM.

The next test deals with NCI-H630. Nature of the test: cells. Type of test: functional, cell-based. Conditions: Homo sapiens.
Description: SANGER: Inhibition of human NCI-H630 cell growth in a cell viability assay.
In turn, `CC1(C)CCC(c2ccc(Cl)cc2)=C(CN2CCN(c3ccc(C(=O)NS(=O)(=O)c4ccc(N[C@H](CCN5CCOCC5)CSc5ccccc5)c(S(=O)(=O)C(F)(F)F)c4)cc3)CC2)C1` [NAVITOCLAX] registered an IC50 of over 2000 nM.

The next test concerns CAPAN-1. Nature of the test: cells. Type of test: functional, cell-based. Conditions: Homo sapiens.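 Also: growth suppression of CAPAN-1 cells, read out by a cell viability assay.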
Description: SANGER: Inhibition of human CAPAN-1 cell growth in a cell viability assay.
The compound `CC1(C)CCC(c2ccc(Cl)cc2)=C(CN2CCN(c3ccc(C(=O)NS(=O)(=O)c4ccc(N[C@H](CCN5CCOCC5)CSc5ccccc5)c(S(=O)(=O)C(F)(F)F)c4)cc3)CC2)C1` [NAVITOCLAX] showed an IC50 of over 2000 nM.

The test system of another test is RMG-I. Nature of the test: cells. Conditions: Homo sapiens. It counts as functional, cell-based.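 Also: growth inhibition of human RMG-I cells, read out with a cell viability assay.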
Description: SANGER: Inhibition of human RMG-I cell growth in a cell viability assay.
Turning to `CC1(C)CCC(c2ccc(Cl)cc2)=C(CN2CCN(c3ccc(C(=O)NS(=O)(=O)c4ccc(N[C@H](CCN5CCOCC5)CSc5ccccc5)c(S(=O)(=O)C(F)(F)F)c4)cc3)CC2)C1` [NAVITOCLAX], half-maximal inhibition (IC50) was put at 495 nM.

The subject of a further test is NCI-H1437. Nature of the test: cells. It counts as functional, cell-based. Conditions: Homo sapiens.
Description: SANGER: Inhibition of human NCI-H1437 cell growth in a cell viability assay.
In turn, `CC1(C)CCC(c2ccc(Cl)cc2)=C(CN2CCN(c3ccc(C(=O)NS(=O)(=O)c4ccc(N[C@H](CCN5CCOCC5)CSc5ccccc5)c(S(=O)(=O)C(F)(F)F)c4)cc3)CC2)C1` [NAVITOCLAX] gave an IC50 of over 2000 nM.

Another test has as its system HuCCT-1. Nature of the test: cells. Conditions: Homo sapiens. It counts as functional, cell-based, HuCCT1.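 Also: growth inhibition of HuCCT-1 cells, read out by a cell viability assay.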
Description: SANGER: Inhibition of human HuCCT1 cell growth in a cell viability assay.
Regarding `CC1(C)CCC(c2ccc(Cl)cc2)=C(CN2CCN(c3ccc(C(=O)NS(=O)(=O)c4ccc(N[C@H](CCN5CCOCC5)CSc5ccccc5)c(S(=O)(=O)C(F)(F)F)c4)cc3)CC2)C1` [NAVITOCLAX], the IC50 was over 2000 nM.

A further test relates to SW1710. Nature of the test: cells. Conditions: Homo sapiens. It counts as functional, cell-based.
Description: SANGER: Inhibition of human SW1710 cell growth in a cell viability assay.
As to `CC1(C)CCC(c2ccc(Cl)cc2)=C(CN2CCN(c3ccc(C(=O)NS(=O)(=O)c4ccc(N[C@H](CCN5CCOCC5)CSc5ccccc5)c(S(=O)(=O)C(F)(F)F)c4)cc3)CC2)C1` [NAVITOCLAX], the IC50 is over 2000 nM.

The test system of the next test is MDA-MB-157. Nature of the test: cells. Type of test: functional, cell-based. Conditions: Homo sapiens.
Description: SANGER: Inhibition of human MDA-MB-157 cell growth in a cell viability assay.
The compound `CC1(C)CCC(c2ccc(Cl)cc2)=C(CN2CCN(c3ccc(C(=O)NS(=O)(=O)c4ccc(N[C@H](CCN5CCOCC5)CSc5ccccc5)c(S(=O)(=O)C(F)(F)F)c4)cc3)CC2)C1` [NAVITOCLAX] returned an IC50 of over 2000 nM.

Another test deals with U-251. Nature of the test: cells. Type of test: functional, cell-based. Conditions: Homo sapiens.
Description: SANGER: Inhibition of human U251 cell growth in a cell viability assay.
Consider `CC1(C)CCC(c2ccc(Cl)cc2)=C(CN2CCN(c3ccc(C(=O)NS(=O)(=O)c4ccc(N[C@H](CCN5CCOCC5)CSc5ccccc5)c(S(=O)(=O)C(F)(F)F)c4)cc3)CC2)C1` [NAVITOCLAX], for which the IC50 was over 2000 nM.

A further test concerns SNU-449. Nature of the test: cells. Particulars: Homo sapiens. It counts as functional, cell-based.
Description: SANGER: Inhibition of human SNU-449 cell growth in a cell viability assay.
Compound `CC1(C)CCC(c2ccc(Cl)cc2)=C(CN2CCN(c3ccc(C(=O)NS(=O)(=O)c4ccc(N[C@H](CCN5CCOCC5)CSc5ccccc5)c(S(=O)(=O)C(F)(F)F)c4)cc3)CC2)C1` [NAVITOCLAX] showed an IC50 of over 2000 nM.

The next test relates to CAL-39. Nature of the test: cells. Conditions: Homo sapiens. Type of test: functional, cell-based.
Description: SANGER: Inhibition of human CAL-39 cell growth in a cell viability assay.
`CC1(C)CCC(c2ccc(Cl)cc2)=C(CN2CCN(c3ccc(C(=O)NS(=O)(=O)c4ccc(N[C@H](CCN5CCOCC5)CSc5ccccc5)c(S(=O)(=O)C(F)(F)F)c4)cc3)CC2)C1` [NAVITOCLAX] displayed an IC50 of over 2000 nM.

For another test, the system named is Calu-3. Nature of the test: cells. Type of test: functional, cell-based. Conditions: Homo sapiens.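 Also: growth inhibition of human Calu-3 cells, determined with a cell viability assay.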
Description: SANGER: Inhibition of human Calu-3 cell growth in a cell viability assay.
As to `CC1(C)CCC(c2ccc(Cl)cc2)=C(CN2CCN(c3ccc(C(=O)NS(=O)(=O)c4ccc(N[C@H](CCN5CCOCC5)CSc5ccccc5)c(S(=O)(=O)C(F)(F)F)c4)cc3)CC2)C1` [NAVITOCLAX], the IC50 amounted to 1710 nM.

For a further test, the system named is A204. Nature of the test: cells. Conditions: Homo sapiens. It counts as functional, cell-based.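 Also: growth inhibition of human A204 cells, read out with a cell viability assay.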
Description: SANGER: Inhibition of human A204 cell growth in a cell viability assay.
As to `CC1(C)CCC(c2ccc(Cl)cc2)=C(CN2CCN(c3ccc(C(=O)NS(=O)(=O)c4ccc(N[C@H](CCN5CCOCC5)CSc5ccccc5)c(S(=O)(=O)C(F)(F)F)c4)cc3)CC2)C1` [NAVITOCLAX], the half-maximal inhibitory concentration (IC50) was over 2000 nM.

For another test, the system named is SW1463. Nature of the test: cells. Type of test: functional, cell-based. Conditions: Homo sapiens.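 Also: growth inhibition of SW1463 cells, determined with a cell viability assay.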
Description: SANGER: Inhibition of human SW1463 cell growth in a cell viability assay.
The compound `CC1(C)CCC(c2ccc(Cl)cc2)=C(CN2CCN(c3ccc(C(=O)NS(=O)(=O)c4ccc(N[C@H](CCN5CCOCC5)CSc5ccccc5)c(S(=O)(=O)C(F)(F)F)c4)cc3)CC2)C1` [NAVITOCLAX] came in with a 50% inhibitory concentration (IC50) of over 2000 nM.

A further test deals with SW780. Nature of the test: cells. Particulars: Homo sapiens. It counts as functional, cell-based.
Description: SANGER: Inhibition of human SW780 cell growth in a cell viability assay.
Consider `CC1(C)CCC(c2ccc(Cl)cc2)=C(CN2CCN(c3ccc(C(=O)NS(=O)(=O)c4ccc(N[C@H](CCN5CCOCC5)CSc5ccccc5)c(S(=O)(=O)C(F)(F)F)c4)cc3)CC2)C1` [NAVITOCLAX], for which the IC50 was over 2000 nM.
